Laboratory results from US9161990B2, “Hydrochloride salts of a glycopeptide-cephalosporin antbiotic compond” (THERAVANCE BIOPHARMA ANTIBIOTICS IP, LLC, priority 2013, dated 2015).
Counter-ions that a name gives are not always drawn.

What was measured:
[1] = Storage stability of hydrochloride salts in a lyophilized composition containing sucrose and glycine (purity by HPLC); assay type: physicochemical; conditions: Trihydrochloride; for Purity (HPLC area percent) / Δ (change in percent purity from time = 0): composition containing sucrose and glycine; for decrease in purity: formulated with sucrose and glycine, listed as trihydrochloride salt
Description: (§1) All solvents were HPLC grade and were purchased from Honeywell Burdick & Jackson (Muskegon, Mich. 49442). Phosphoric acid (85% w/w) and sodium dihydrogen phosphate were HPLC grade and were purchased from Fluka (Sigma-Aldrich, St. Louis, Mo. 63103). All reagents were used without further purification.
(§2) Test samples were filtered through a 0.2 μm polyvinylidene fluoride (PVDF) filter before analysis and the first 1 mL was discarded.
(§3) Test sample purity was determined based on the integrated peak area (area-under-the-curve or AUC) for the compound as a percentage of all integrated peaks. The concentration (assay value) of the compound in a test sample was determined by comparison with a reference standard.
(§4) One rack was stored protected from light in a drawer at room temperature and the other rack was stored in a refrigerator at 2 to 8° C. A representative vial of each type of stability sample was analyzed by HPLC after storage for 1, 3, 6 and 12 months to determine purity.

[2] = Storage stability of lyophilized hydrochloride salts (purity by HPLC); assay type: physicochemical
Description: as §1, §2, §3, §4

[3] = refrigerated temperature (2 to 8° C.), 1 month
[4] = refrigerated temperature (2 to 8° C.), 6 months
[5] = refrigerated temperature (2 to 8° C.), 12 months
[6] = refrigerated temperature (2 to 8° C.), 1 month, Trihydrochloride
[7] = refrigerated temperature (2 to 8° C.), 3 months, Trihydrochloride
[8] = refrigerated temperature (2 to 8° C.), 6 months, Trihydrochloride
[9] = refrigerated temperature (2 to 8° C.), 12 months, Trihydrochloride
[10] = room temperature, 1 month, Trihydrochloride
[11] = room temperature, 3 months, Trihydrochloride
[12] = room temperature, 6 months, Trihydrochloride
[13] = room temperature, 12 months, Trihydrochloride

Purity (HPLC area percent) [1, 3]: 91.5%
Δ (change in percent purity from time = 0) [1, 3]: 0.2%
Δ (change in percent purity from time = 0) ([1]; refrigerated temperature (2 to 8° C.), 3 months): −0.5%
Purity (HPLC area percent) [1, 4]: 92.8%
Δ (change in percent purity from time = 0) [1, 4]: 1.5%
Purity (HPLC area percent) [1, 5]: 90.1%
Δ (change in percent purity from time = 0) [1, 5]: −1.2%
Purity (HPLC area percent) ([1]; refrigerated temperature (2 to 8° C.), time 0 months): 91.3%
Purity (HPLC area percent) ([1]; room temperature, 1 month): 89.2%
Δ (change in percent purity from time = 0) ([1]; room temperature, 1 month): −2.1%
Purity (HPLC area percent) ([1]; room temperature, 3 months): 84.4%
Δ (change in percent purity from time = 0) ([1]; room temperature, 3 months): −6.9%
Purity (HPLC area percent) ([1]; room temperature, 6 months): 82.5%
Δ (change in percent purity from time = 0) ([1]; room temperature, 6 months): −8.8%
Purity (HPLC area percent) ([1]; room temperature, 12 months): 65.0%
Δ (change in percent purity from time = 0) ([1]; room temperature, 12 months): −26.3%
Purity (HPLC area percent) ([1]; room temperature, time 0 months): 91.3%
decrease in purity ([1]; stored at 2 to 8° C. for 12 months): 1.2%
decrease in purity ([1]; stored at room temperature for 12 months): 26.3%
Purity (HPLC area percent) [2, 6]: 84.0%
Δ (change in percent purity from time = 0) [2, 6]: −0.5%
Purity (HPLC area percent) [2, 7]: 80.7%
Δ (change in percent purity from time = 0) [2, 7]: −3.8%
Purity (HPLC area percent) [2, 8]: 79.4%
Δ (change in percent purity from time = 0) [2, 8]: −5.1%
Purity (HPLC area percent) [2, 9]: 76.0%
Δ (change in percent purity from time = 0) [2, 9]: −8.6%
Purity (HPLC area percent) ([2]; refrigerated temperature (2 to 8° C.), time 0 months, Trihydrochloride): 84.5%
Purity (HPLC area percent) [2, 10]: 74.8%
Δ (change in percent purity from time = 0) [2, 10]: −9.7%
Purity (HPLC area percent) [2, 11]: 69.5%
Δ (change in percent purity from time = 0) [2, 11]: −15.0%
Purity (HPLC area percent) [2, 12]: 56.5%
Δ (change in percent purity from time = 0) [2, 12]: −28.0%
Purity (HPLC area percent) [2, 13]: 50.4%
Δ (change in percent purity from time = 0) [2, 13]: −34.2%
Purity (HPLC area percent) ([2]; room temperature, time 0 months, Trihydrochloride): 84.5%
decrease in purity ([2]; stored at 2 to 8° C. for 12 months, listed as trihydrochloride salt, Trihydrochloride): 8.6%
decomposition on storage ([2]; stored at room temperature or at refrigerated temperature (about 2 to about 8° C.)): decompose significantly
SMILES: CN[C@H](CC(C)C)C(=O)NC1C(=O)N[C@@H](CC(N)=O)C(=O)N[C@H]2C(=O)N[C@H]3C(=O)N[C@H](C(=O)N[C@H](C(=O)NCCCO/N=C(\C(=O)N[C@@H]4C(=O)N5C(C(=O)[O-])=C(C[n+]6ccccc6)CS[C@H]45)c4nc(N)sc4Cl)c4cc(O)cc(O)c4-c4cc3ccc4O)[C@H](O)c3ccc(c(Cl)c3)Oc3cc2cc(c3O[C@@H]2O[C@H](CO)[C@@H](O)[C@H](O)[C@H]2O[C@H]2C[C@](C)(N)[C@H](O)[C@H](C)O2)Oc2ccc(cc2Cl)[C@H]1O (stereo partly drawn) [Trihydrochloride, 26-[[[3-[[(Z)-[1-(2-Amino-5-chloro-4-thiazolyl)-2-[[(6R,7R)-2-carboxy-8-oxo-3-(pyridiniomethyl)-5-thia-1-azabicyclo[4.2.0]oct-2-en-7-yl]amino]-2-oxoethylidene]amino]oxy]propyl]amino]carbonyl]-26-decarboxyvancomycin Trihydrochloride, reference compound]
